{"source": "paper PMC7340670", "about": "“Phase I study of TAS-115, a novel oral multi-kinase inhibitor, in patients with advanced solid tumors” (Investigational New Drugs, 2019)", "key": {"[1]": {"biological_target": "192-panel kinase", "design": "method as in PMID 24140932", "details": "192-panel kinase assay; read-out: IC50 for 53 (28%) kinases, including MET, AXL, c-kit, Src, PDGFR-alpha and –beta; cited from earlier work"}, "[2]": {"tested_on": "AKT and ERK1/2 phosphorylation", "design": "method as in PMID 27539855, PMID 27736957", "details": "mouse osteoclasts in vitro; cited from earlier work"}, "[3]": {"tested_on": "osteoclast differentiation", "design": "method as in data on file", "details": "in vitro; ref data on file; cited from earlier work"}, "[4]": {"assay": "Plasma pharmacokinetics in the phase I study", "type": "in vivo, human", "details": "for half-life / AUC(0-t) / Cmax / Tmax: human, plasma; for half-life: read-out: t1/2 Mean (SD) (converted); for AUC(0-t): read-out: AUC0-24 Mean (SD); for Cmax: read-out: Cmax Mean (SD)", "method": "Blood samples were collected for plasma PK assessments pre-dosing and at 1, 2, 3, 4, 6, 8, 12, and 24 h after TAS-115 administration on Days 1 and 8 of cycle 1 in part 1, and on Days 1, 8, and 19 of cycle 1 in part 2 (only pre-dosing on Day 8). TAS-115 concentrations were measured by validated liquid chromatography-tandem mass spectrometry. A preliminary assessment of the effect of food on the PK profile was performed. Blood samples after administration under fed and empty stomach conditions were collected from the first six patients in the expansion part. Pharmacokinetic parameters were determined using non-compartmental analyses (Phoenix® WinNonlin® version 6.4; Certara LP, Princeton, NJ, USA)."}, "[5]": {"details": "expansion part, 650 mg, six patients, not statistically significant"}, "[6]": {"details": "oral, 200 mg/day, Part 1, Day 1 (single administration), 200 mg/day, n=3"}, "[7]": {"details": "oral, 200 mg/day, Part 1, Day 8 (multiple administration), 200 mg/day, n=3"}, "[8]": {"details": "oral, 300 mg/day, Part 1, Day 1 (single administration), 300 mg/day, n=3"}, "[9]": {"details": "oral, 300 mg/day, Part 1, Day 8 (multiple administration), 300 mg/day, n=2"}, "[10]": {"details": "oral, 450 mg/day, Part 1, Day 1 (single administration), 450 mg/day, n=3"}, "[11]": {"details": "oral, 450 mg/day, Part 1, Day 8 (multiple administration), 450 mg/day, n=3"}, "[12]": {"details": "oral, 650 mg/day, Expansion part, Empty Stomach, 650 mg/day, n=6"}, "[13]": {"details": "oral, 650 mg/day, Expansion part, Fed, 650 mg/day, n=6"}, "[14]": {"details": "oral, 650 mg/day, Part 1, Day 1 (single administration), 650 mg/day, n=6"}, "[15]": {"details": "oral, 650 mg/day, Part 1, Day 8 (multiple administration), 650 mg/day, n=5"}, "[16]": {"details": "oral, 650 mg/day, Part 2, Day 1 (single administration), 650 mg/day, n=6"}, "[17]": {"details": "oral, 650 mg/day, Part 2, Day 19 (multiple administration), 650 mg/day, n=6"}, "[18]": {"details": "oral, 800 mg/day, Part 1, Day 1 (single administration), 800 mg/day, n=6"}, "[19]": {"details": "oral, 800 mg/day, Part 1, Day 8 (multiple administration), 800 mg/day, n=6"}}, "note": "“Also recorded” adds a separate entry of the source. Where two headings read alike, the source gives them in different places.", "data": [{"smiles": "CNC(=O)c1cc2c(Oc3ccc(NC(=S)NC(=O)Cc4ccccc4)cc3F)ccnc2cc1OC", "note": "[TAS-115]", "values": [{"measurement": "IC50", "setting": "[1]", "value": "< 1000", "unit": "nM"}, {"measurement": "HGF, and VEGF-induced phosphorylation of signaling factors (AKT and ERK1/2)", "setting": "[2]", "value": "suppressed"}, {"measurement": "osteoclast differentiation induced by M-CSF and RANKL", "setting": "[3]", "value": "dose-dependent inhibition"}, {"measurement": "dose dependence of AUC0–24 / systemic exposure", "setting": "[4]; after single administration, part 1", "value": "increased almost dose-proportionally; also recorded: increased dose-proportionally over the tested range from 200 mg to 650 mg"}, {"measurement": "geometric mean ratio (90% CI) of AUC0–24, fed to empty stomach condition", "setting": "[4]; [5]", "value": "0.812 (0.414–1.593)"}, {"measurement": "geometric mean ratio (90% CI) of Cmax, fed to empty stomach condition", "setting": "[4]; [5]", "value": "0.545 (0.243–1.224)"}, {"measurement": "half-life", "setting": "[4]; oral, 200 mg/day, Part 1, Day 1 (single administration), 200 mg/day, n=2", "value": 15.2, "unit": "h"}, {"measurement": "AUC(0-t)", "setting": "[4]; [6]", "value": 20000, "unit": "ng·h/mL"}, {"measurement": "Cmax", "setting": "[4]; [6]", "value": 2490, "unit": "ng/mL"}, {"measurement": "Tmax", "setting": "[4]; oral, 200 mg/day, Part 1, Day 1 (single administration), 200 mg/day, n=3, read-out: tmax Median", "value": 1, "unit": "h"}, {"measurement": "AUC(0-t)", "setting": "[4]; [7]", "value": 22700, "unit": "ng·h/mL"}, {"measurement": "Cmax", "setting": "[4]; [7]", "value": 2950, "unit": "ng/mL"}, {"measurement": "half-life", "setting": "[4]; [7]", "value": 26.6, "unit": "h"}, {"measurement": "Tmax", "setting": "[4]; oral, 200 mg/day, Part 1, Day 8 (multiple administration), 200 mg/day, n=3, read-out: tmax Median", "value": 1, "unit": "h"}, {"measurement": "AUC(0-t)", "setting": "[4]; [8]", "value": 23200, "unit": "ng·h/mL"}, {"measurement": "Cmax", "setting": "[4]; [8]", "value": 3500, "unit": "ng/mL"}, {"measurement": "half-life", "setting": "[4]; [8]", "value": 20.4, "unit": "h"}, {"measurement": "Tmax", "setting": "[4]; oral, 300 mg/day, Part 1, Day 1 (single administration), 300 mg/day, n=3, read-out: tmax Median", "value": 1, "unit": "h"}, {"measurement": "AUC(0-t)", "setting": "[4]; [9]", "value": 32500, "unit": "ng·h/mL"}, {"measurement": "Cmax", "setting": "[4]; [9]", "value": 3900, "unit": "ng/mL"}, {"measurement": "half-life", "setting": "[4]; [9]", "value": 15.9, "unit": "h"}, {"measurement": "Tmax", "setting": "[4]; oral, 300 mg/day, Part 1, Day 8 (multiple administration), 300 mg/day, n=2, read-out: tmax Median", "value": 1.5, "unit": "h"}, {"measurement": "AUC(0-t)", "setting": "[4]; [10]", "value": 28800, "unit": "ng·h/mL"}, {"measurement": "Cmax", "setting": "[4]; [10]", "value": 4540, "unit": "ng/mL"}, {"measurement": "half-life", "setting": "[4]; [10]", "value": 12.6, "unit": "h"}, {"measurement": "Tmax", "setting": "[4]; oral, 450 mg/day, Part 1, Day 1 (single administration), 450 mg/day, n=3, read-out: tmax Median", "value": 1, "unit": "h"}, {"measurement": "AUC(0-t)", "setting": "[4]; [11]", "value": 37000, "unit": "ng·h/mL"}, {"measurement": "Cmax", "setting": "[4]; [11]", "value": 4310, "unit": "ng/mL"}, {"measurement": "half-life", "setting": "[4]; [11]", "value": 11.4, "unit": "h"}, {"measurement": "Tmax", "setting": "[4]; oral, 450 mg/day, Part 1, Day 8 (multiple administration), 450 mg/day, n=3, read-out: tmax Median", "value": 1, "unit": "h"}, {"measurement": "AUC(0-t)", "setting": "[4]; [12]", "value": 39300, "unit": "ng·h/mL"}, {"measurement": "Cmax", "setting": "[4]; [12]", "value": 4760, "unit": "ng/mL"}, {"measurement": "Tmax", "setting": "[4]; oral, 650 mg/day, Expansion part, Empty Stomach, 650 mg/day, n=6, read-out: tmax Median", "value": 2, "unit": "h"}, {"measurement": "AUC(0-t)", "setting": "[4]; [13]", "value": 41700, "unit": "ng·h/mL"}, {"measurement": "Cmax", "setting": "[4]; [13]", "value": 3900, "unit": "ng/mL"}, {"measurement": "Tmax", "setting": "[4]; oral, 650 mg/day, Expansion part, Fed, 650 mg/day, n=6, read-out: tmax Median", "value": 5, "unit": "h"}, {"measurement": "AUC(0-t)", "setting": "[4]; [14]", "value": 59700, "unit": "ng·h/mL"}, {"measurement": "Cmax", "setting": "[4]; [14]", "value": 7700, "unit": "ng/mL"}, {"measurement": "half-life", "setting": "[4]; [14]", "value": 10.3, "unit": "h"}, {"measurement": "Tmax", "setting": "[4]; oral, 650 mg/day, Part 1, Day 1 (single administration), 650 mg/day, n=6, read-out: tmax Median", "value": 1, "unit": "h"}, {"measurement": "half-life", "setting": "[4]; oral, 650 mg/day, Part 1, Day 8 (multiple administration), 650 mg/day, n=4", "value": 8.7, "unit": "h"}, {"measurement": "AUC(0-t)", "setting": "[4]; [15]", "value": 54500, "unit": "ng·h/mL"}, {"measurement": "Cmax", "setting": "[4]; [15]", "value": 5040, "unit": "ng/mL"}, {"measurement": "Tmax", "setting": "[4]; oral, 650 mg/day, Part 1, Day 8 (multiple administration), 650 mg/day, n=5, read-out: tmax Median", "value": 2, "unit": "h"}, {"measurement": "half-life", "setting": "[4]; oral, 650 mg/day, Part 2, Day 1 (single administration), 650 mg/day, n=5", "value": 14.5, "unit": "h"}, {"measurement": "AUC(0-t)", "setting": "[4]; [16]", "value": 49800, "unit": "ng·h/mL"}, {"measurement": "Cmax", "setting": "[4]; [16]", "value": 7510, "unit": "ng/mL"}, {"measurement": "Tmax", "setting": "[4]; oral, 650 mg/day, Part 2, Day 1 (single administration), 650 mg/day, n=6, read-out: tmax Median", "value": 1, "unit": "h"}, {"measurement": "AUC(0-t)", "setting": "[4]; [17]", "value": 56700, "unit": "ng·h/mL"}, {"measurement": "Cmax", "setting": "[4]; [17]", "value": 7370, "unit": "ng/mL"}, {"measurement": "half-life", "setting": "[4]; [17]", "value": 16.8, "unit": "h"}, {"measurement": "Tmax", "setting": "[4]; oral, 650 mg/day, Part 2, Day 19 (multiple administration), 650 mg/day, n=6, read-out: tmax Median", "value": 1, "unit": "h"}, {"measurement": "AUC(0-t)", "setting": "[4]; [18]", "value": 37800, "unit": "ng·h/mL"}, {"measurement": "Cmax", "setting": "[4]; [18]", "value": 4910, "unit": "ng/mL"}, {"measurement": "half-life", "setting": "[4]; [18]", "value": 13.7, "unit": "h"}, {"measurement": "Tmax", "setting": "[4]; oral, 800 mg/day, Part 1, Day 1 (single administration), 800 mg/day, n=6, read-out: tmax Median", "value": 1, "unit": "h"}, {"measurement": "AUC(0-t)", "setting": "[4]; [19]", "value": 44600, "unit": "ng·h/mL"}, {"measurement": "Cmax", "setting": "[4]; [19]", "value": 5220, "unit": "ng/mL"}, {"measurement": "half-life", "setting": "[4]; [19]", "value": 12.8, "unit": "h"}, {"measurement": "Tmax", "setting": "[4]; oral, 800 mg/day, Part 1, Day 8 (multiple administration), 800 mg/day, n=6, read-out: tmax Median", "value": 1.5, "unit": "h"}, {"measurement": "Tmax", "setting": "[4]; po, oral administration, across dose levels, read-out: median time to maximum concentration (tmax)", "value": "1 to 2", "unit": "h"}, {"measurement": "accumulation", "setting": "[4]; multiple dosing for 8 days, part 1", "value": "no accumulation"}]}]}
